According to BindingDB's records for patent US20190276450 (Abbvie, 2019):

Target: Tyrosine-protein kinase JAK2 (Homo sapiens, UniProt O60674)
Experiment: JAK2 (PSTAT5 UT7) Alpha Screen Assay
Procedure: (§1) Erythropoietin (EPO) is known to transduce its signal through EPO receptor via Jak2. Activity against Jak2 was therefore measured by determining inhibition of EPO induced phosphorylation of STATS in UT7 cells. From these tests, the EC50 (effective concentration for 50% maximal response) values were determined in 1 μM for the test compounds.

Chain of Tyrosine-protein kinase JAK2 (O60674 whole entry): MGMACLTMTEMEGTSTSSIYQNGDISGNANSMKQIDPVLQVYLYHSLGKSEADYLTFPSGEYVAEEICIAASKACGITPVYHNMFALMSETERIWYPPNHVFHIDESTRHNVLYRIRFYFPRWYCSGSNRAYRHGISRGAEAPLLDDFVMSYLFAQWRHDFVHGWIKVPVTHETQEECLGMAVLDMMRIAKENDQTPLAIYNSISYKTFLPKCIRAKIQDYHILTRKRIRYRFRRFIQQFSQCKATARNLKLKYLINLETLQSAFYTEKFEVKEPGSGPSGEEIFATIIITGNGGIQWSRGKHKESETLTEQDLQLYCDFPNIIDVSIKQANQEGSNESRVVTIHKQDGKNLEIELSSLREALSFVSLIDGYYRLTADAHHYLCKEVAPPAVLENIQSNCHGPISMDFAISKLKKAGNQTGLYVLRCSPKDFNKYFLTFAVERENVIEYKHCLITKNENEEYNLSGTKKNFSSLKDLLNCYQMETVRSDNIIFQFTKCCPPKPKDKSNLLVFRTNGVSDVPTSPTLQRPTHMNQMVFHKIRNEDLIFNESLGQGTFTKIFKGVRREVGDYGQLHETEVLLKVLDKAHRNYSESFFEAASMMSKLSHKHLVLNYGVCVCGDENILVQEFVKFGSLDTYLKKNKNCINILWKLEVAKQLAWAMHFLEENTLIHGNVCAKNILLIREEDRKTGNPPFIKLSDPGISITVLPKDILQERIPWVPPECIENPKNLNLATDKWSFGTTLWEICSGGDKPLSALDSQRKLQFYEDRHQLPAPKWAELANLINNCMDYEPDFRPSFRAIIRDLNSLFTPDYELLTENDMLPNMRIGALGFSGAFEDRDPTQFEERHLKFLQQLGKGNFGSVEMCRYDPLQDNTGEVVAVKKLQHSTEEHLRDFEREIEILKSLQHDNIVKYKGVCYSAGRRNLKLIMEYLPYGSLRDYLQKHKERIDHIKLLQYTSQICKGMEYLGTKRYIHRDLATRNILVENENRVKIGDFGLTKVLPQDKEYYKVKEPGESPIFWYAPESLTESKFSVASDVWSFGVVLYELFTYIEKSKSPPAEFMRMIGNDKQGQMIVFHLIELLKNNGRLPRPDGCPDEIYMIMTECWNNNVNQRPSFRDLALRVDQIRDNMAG

| EC50 | Structure (SMILES) |
| --- | --- |
| > 25 µM | COc1cc(-c2cn(C)c3cnc(NC(N)=O)cc23)nc([C@]2(OC)CCOC2)c1 [US20190276450, Example 12.6] |
| > 25 µM | CC(=O)Nc1cc2c(-c3cccc([C@]4(CO)CCOC4)n3)cn(C)c2cn1 [US20190276450, Example 21] |
| > 25 µM | CO[C@@]1(c2cccc(-c3cn([C@H]4C[C@H](C#N)C4)c4cnc(NC(C)=O)cc34)n2)CCOC1 [US20190276450, Example 17] |
| > 25 µM | COCc1cc(-c2cn(C)c3cnc(NC(C)=O)cc23)nc([C@]2(CO)CCOC2)c1 [US20190276450, Example 22] |

Target: Non-receptor tyrosine-protein kinase TYK2 (Homo sapiens, UniProt P29597)
Experiment: TYK2 (TYK2/JAK2 PSTAT4 T-BLAST) Alpha Screen Assay
Procedure: IL-12 is known to transduce its signal through IL-12 receptor via Jak2 and/or Tyk2. For that reason, the activity against Tyk2/Jak2 was measured by determining the inhibition of IL-12 induced phosphorylation of STAT4 in T-blast cells. […] See, e.g., Sohn et al., J. Immunology (2013) 2205-2216.

Chain of Non-receptor tyrosine-protein kinase TYK2 (P29597 whole entry): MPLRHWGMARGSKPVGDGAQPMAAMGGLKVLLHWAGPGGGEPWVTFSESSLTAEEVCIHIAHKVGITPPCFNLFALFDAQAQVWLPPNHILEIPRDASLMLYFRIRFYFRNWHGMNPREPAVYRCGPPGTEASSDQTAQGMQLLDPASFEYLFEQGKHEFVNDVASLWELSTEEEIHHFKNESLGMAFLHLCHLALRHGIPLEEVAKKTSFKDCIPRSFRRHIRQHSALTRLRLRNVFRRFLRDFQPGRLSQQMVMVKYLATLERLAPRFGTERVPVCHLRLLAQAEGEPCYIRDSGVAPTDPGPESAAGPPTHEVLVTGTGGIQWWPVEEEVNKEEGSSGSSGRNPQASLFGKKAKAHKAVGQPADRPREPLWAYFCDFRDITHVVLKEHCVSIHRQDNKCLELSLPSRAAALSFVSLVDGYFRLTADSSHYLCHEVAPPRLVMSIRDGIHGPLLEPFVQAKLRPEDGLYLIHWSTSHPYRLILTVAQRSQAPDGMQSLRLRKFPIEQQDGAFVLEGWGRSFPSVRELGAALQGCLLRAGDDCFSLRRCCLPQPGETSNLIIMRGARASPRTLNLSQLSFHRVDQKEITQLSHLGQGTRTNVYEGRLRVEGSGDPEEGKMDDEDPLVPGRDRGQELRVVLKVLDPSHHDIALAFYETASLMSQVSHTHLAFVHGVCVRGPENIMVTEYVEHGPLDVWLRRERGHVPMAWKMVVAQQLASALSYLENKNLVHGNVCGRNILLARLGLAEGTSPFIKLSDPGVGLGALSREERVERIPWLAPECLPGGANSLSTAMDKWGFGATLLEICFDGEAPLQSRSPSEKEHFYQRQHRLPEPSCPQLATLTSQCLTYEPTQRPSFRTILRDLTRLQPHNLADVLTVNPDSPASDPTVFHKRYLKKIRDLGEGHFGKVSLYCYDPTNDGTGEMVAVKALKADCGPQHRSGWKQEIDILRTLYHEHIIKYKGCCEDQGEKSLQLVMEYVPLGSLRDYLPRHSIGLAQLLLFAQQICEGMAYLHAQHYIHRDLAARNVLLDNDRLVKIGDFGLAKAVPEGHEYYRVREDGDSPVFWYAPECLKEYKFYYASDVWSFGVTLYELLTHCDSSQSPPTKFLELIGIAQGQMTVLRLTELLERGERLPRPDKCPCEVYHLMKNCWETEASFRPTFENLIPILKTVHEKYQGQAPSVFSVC

| EC50 | Structure (SMILES) |
| --- | --- |
| 0.039 µM | COc1cc(-c2cn(C)c3cnc(NC(N)=O)cc23)nc([C@]2(OC)CCOC2)c1 [US20190276450, Example 12.6] |
| 0.08 µM | CC(=O)Nc1cc2c(-c3cccc([C@]4(CO)CCOC4)n3)cn(C)c2cn1 [US20190276450, Example 21] |
| 0.031 µM | CO[C@@]1(c2cccc(-c3cn([C@H]4C[C@H](C#N)C4)c4cnc(NC(C)=O)cc34)n2)CCOC1 [US20190276450, Example 17] |
| 0.146 µM | COCc1cc(-c2cn(C)c3cnc(NC(C)=O)cc23)nc([C@]2(CO)CCOC2)c1 [US20190276450, Example 22] |

Target: Tyrosine-protein kinase JAK1 (Homo sapiens, UniProt P23458)
Experiment: JAK1 (PSTAT3 TF1) Alpha Screen Assay
Procedure: as §1, with “IL-6” for “Erythropoietin (EPO)”, “IL-6” for “EPO”, “Jak1.” for “Jak2.”, “Jak” for “Jak2”, “STAT3” for “STATS”, “TF1” for “UT7”

Chain of Tyrosine-protein kinase JAK1 (P23458 whole entry): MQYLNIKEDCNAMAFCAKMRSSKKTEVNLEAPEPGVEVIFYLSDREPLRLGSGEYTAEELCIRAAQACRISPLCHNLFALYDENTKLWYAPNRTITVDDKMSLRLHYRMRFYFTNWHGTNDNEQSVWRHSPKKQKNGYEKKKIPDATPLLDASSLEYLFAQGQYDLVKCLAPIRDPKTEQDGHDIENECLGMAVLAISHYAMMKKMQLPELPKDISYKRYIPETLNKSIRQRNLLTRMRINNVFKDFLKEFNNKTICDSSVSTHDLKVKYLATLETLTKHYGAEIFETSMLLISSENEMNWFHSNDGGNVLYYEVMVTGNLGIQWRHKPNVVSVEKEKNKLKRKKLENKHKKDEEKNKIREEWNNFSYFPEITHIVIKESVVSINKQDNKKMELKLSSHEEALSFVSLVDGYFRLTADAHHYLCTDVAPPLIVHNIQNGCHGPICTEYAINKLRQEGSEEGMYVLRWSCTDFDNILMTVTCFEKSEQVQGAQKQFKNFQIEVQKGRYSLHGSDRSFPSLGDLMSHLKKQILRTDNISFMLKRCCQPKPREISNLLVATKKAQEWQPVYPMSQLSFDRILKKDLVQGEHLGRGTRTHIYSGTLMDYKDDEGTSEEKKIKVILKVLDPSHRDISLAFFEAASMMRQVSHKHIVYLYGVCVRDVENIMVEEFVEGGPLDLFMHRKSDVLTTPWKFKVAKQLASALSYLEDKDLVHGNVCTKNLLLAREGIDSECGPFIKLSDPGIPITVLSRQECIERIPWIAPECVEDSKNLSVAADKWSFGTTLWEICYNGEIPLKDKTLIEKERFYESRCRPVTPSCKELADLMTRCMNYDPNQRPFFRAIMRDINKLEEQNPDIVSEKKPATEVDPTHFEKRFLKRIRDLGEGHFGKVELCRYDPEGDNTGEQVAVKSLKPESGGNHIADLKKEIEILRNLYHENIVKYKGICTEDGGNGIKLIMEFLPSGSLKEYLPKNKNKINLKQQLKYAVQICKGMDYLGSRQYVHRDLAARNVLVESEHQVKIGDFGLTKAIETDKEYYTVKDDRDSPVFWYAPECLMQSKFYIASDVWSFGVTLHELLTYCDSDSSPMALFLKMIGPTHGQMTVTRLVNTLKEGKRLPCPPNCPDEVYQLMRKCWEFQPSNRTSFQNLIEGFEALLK

| EC50 | Structure (SMILES) |
| --- | --- |
| 15 µM | COc1cc(-c2cn(C)c3cnc(NC(N)=O)cc23)nc([C@]2(OC)CCOC2)c1 [US20190276450, Example 12.6] |
| 2.8 µM | CC(=O)Nc1cc2c(-c3cccc([C@]4(CO)CCOC4)n3)cn(C)c2cn1 [US20190276450, Example 21] |
| 27 µM | CO[C@@]1(c2cccc(-c3cn([C@H]4C[C@H](C#N)C4)c4cnc(NC(C)=O)cc34)n2)CCOC1 [US20190276450, Example 17] |
| 10.5 µM | COCc1cc(-c2cn(C)c3cnc(NC(C)=O)cc23)nc([C@]2(CO)CCOC2)c1 [US20190276450, Example 22] |
